Laboratory results published in patent publication US8987189B2, “Treating hepatitis C virus infection” (Board of Regents, The University of Texas System, priority 2007, dated 2015).

What was measured:
genotype 2a HCV = experiment: HCV release assay in Huh7-GL cells (HCV RNA copy number and titer in medium, intracellular HCV RNA); type: cell-based, hepatitis C virus; conditions: for cellular release of virus (HCV RNA copy numbers and titers in the media): Huh7-GL cells, 1 nM, 10 nM, 100 nM and 500 nM, 16 hr then 4 hours in serum-free medium
Description: (§1) Huh7-GL cells were incubated in the absence or presence of the MTP inhibitor […]. Following incubation in serum-free medium, culture medium was harvested and the amount of HCV RNA, HCV titer, and apoB in the medium was measured.
Huh7-GL cells are cultured as described in Example 2. On day 1, the cells are treated with 1 nM, 10 nM, 100 nM, and 500 nM of the following MTP inhibitors: BMS-201038 (positive control), BMS-200150, BMS-212122, BMS-197636, JTT-130, Implitapide, mitratapide, and CP-346086. 16 hr later on day 2, cells are switched to serum-free medium in the absence or presence of the same amount of the MTP inhibitor.

apoB = apoB mRNA and apoB secretion in Huh7-GL cells; type: cell-based, human; conditions: Huh7-GL cells incubated with MTP inhibitor, serum-free medium
Description: We transfected Huh7-GL cells, a line of Huh7 cells that contain a chromosomally integrated genotype 2a HCV cDNA and constitutively produce infectious virus (Cai et al., 2005), with a duplex siRNA targeting apoB or GFP as a control. Following incubation in serum-free medium, culture medium was harvested and the amount of apoB and HCV in the medium was analyzed. […] In control cells transfected with the GFP siRNA, the HCV copy number and titer increased by more than 10 fold during the period of 4-hr incubation. In cells receiving the apoB siRNA, this increase was reduced by about 50% as assayed by viral copy number, and 70% as assayed by the viral titer.
as §1

HCV = experiment: Randomized, double-blind, placebo-controlled trial in patients with chronic HCV infection; conditions: 0.15 mg per kilogram twice daily, 12-week course
Description: Patients are recruited and are eligible for enrollment if they are positive for HCV RNA on serologic testing after at least 3 months of interferon therapy. Patients who can not tolerate interferon because of severe side effects, such as fatigue, neuropsychiatric disturbances, or thrombocytopenia, are also included.
Physicians and patients are blinded to treatment assignments. Patients are evaluated every 3 weeks for compliance, which is assessed by pill count, and for the development of adverse reactions. […] At each evaluation visit, a complete blood count is done and serum levels of electrolytes, blood urea nitrogen, creatinine, aspartate aminotransferase, alanine aminotransferase, albumin, and total bilirubin are measured. Titers of serum HCV RNA are assessed before enrollment, at each evaluation visit, and 6 weeks after the final dose by using a […] multicycle reverse transcription polymerase chain reaction method. Titers are calculated up to 5 million copies/mL; if a titer is greater than 5 million copies/mL, it is simply reported as such and the exact value is not given.

[1] = previous clinical trials; cited from earlier work
[2] = Huh7-GL cells incubated with MTP inhibitor vs absence of inhibitor

Molecule	cellular release of virus (HCV RNA copy numbers and titers in the media) (genotype 2a HCV)	also measured
CCCNC(=O)C1(CCCCN2CCC(N3Cc4ccccc4C3=O)CC2)c2ccccc2-c2ccccc21 [BMS-197636]	decreases in cellular release of virus	
O=C1c2ccccc2CN1C1CCN(CCC(c2ccccc2)c2ccccc2)CC1 [BMS-200150]	decreases in cellular release of virus	
O=C(NC1CCN(CCCCC2(C(=O)NCC(F)(F)F)c3ccccc3-c3ccccc32)CC1)c1ccccc1-c1ccc(C(F)(F)F)cc1 [BMS-201038]	decreases in cellular release of virus	secretion of apoB (apoB): blocked; intracellular HCV RNA (genotype 2a HCV; Huh7-GL cells in the absence or presence of the MTP inhibitor): remained the same; reduction of the amount of HCV RNA in the medium (genotype 2a HCV; [2]): about 80%; reduction of viral titer in the medium (genotype 2a HCV; [2]): about 80%; serum viremia (viral load, aminotransferase levels) (HCV): decrease in serum viremia; tolerability [1]: high tolerability
Cc1ccc2c(nc(C)n2CCCCC2(C(=O)NCC(F)(F)F)c3ccccc3-c3ccccc32)c1NC(=O)c1ccccc1-c1ccc(C(F)(F)F)cc1 [BMS-212122]	decreases in cellular release of virus	
O=C(Nc1ccc2c(c1)CCN(Cc1ncn[nH]1)C2)c1ccccc1-c1ccc(C(F)(F)F)cc1 [CP-346086]	decreases in cellular release of virus	
CCOC(=O)C(COC(=O)Cc1ccc(NC(=O)c2ccccc2-c2ccc(C(F)(F)F)cc2)c(C(=O)N(C)C)c1)(C(=O)OCC)c1ccccc1 [JTT-130]	decreases in cellular release of virus	
CC[C@@H](C)n1ncn(-c2ccc(N3CCN(c4ccc(OC[C@@H]5CO[C@@](CSc6nncn6C)(c6ccc(Cl)cc6)O5)cc4)CC3)cc2)c1=O [mitratapide]	decreases in cellular release of virus	
implitapide	decreases in cellular release of virus	
